This assay has as its system L1210 leukemia ip in BDF1 mice, survival T/C. Briefly: NCI In Vivo Anticancer Drug Screen. Data for tumor model L1210 Leukemia (intraperitoneal) in B6D2F1 (BDF1) mice. Conditions: endpoint: mean survival time, higher = longer survival. The method in brief: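 Mice bearing the transplanted tumor received compound or vehicle. Survival of the treated group was divided by that of the vehicle-treated control group to give the ratio.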

Where [1] appears, read: dose: 50.0 mg/kg/injection, schedule: Q01DX009 (ip), vehicle: saline with Tween-80.
Setting [2] is: dose: 75.0 mg/kg/injection, schedule: Q01DX001 (ip), vehicle: saline.
Where [3] appears, read: dose: 100.0 mg/kg/injection, schedule: Q01DX009 (ip), vehicle: saline with Tween-80.
Where [4] appears, read: dose: 200.0 mg/kg/injection, schedule: Q01DX009 (ip), vehicle: saline with Tween-80.
The mark [5] stands for this setting: dose: 400.0 mg/kg/injection, schedule: Q01DX009 (ip), vehicle: saline with Tween-80.
The mark [6] stands for this setting: dose: 100.0 mg/kg/injection, schedule: Q04DX002 (ip), vehicle: saline with Tween-80.
Where [7] appears, read: dose: 400.0 mg/kg/injection, schedule: Q04DX002 (ip), vehicle: saline with Tween-80.
[8] abbreviates: dose: 100.0 mg/kg/injection, schedule: Q04DX002 (ip), vehicle: Klucel (hydroxypropylcellulose) (HPC).
The mark [9] stands for this setting: dose: 200.0 mg/kg/injection, schedule: Q04DX002 (ip), vehicle: Klucel (hydroxypropylcellulose) (HPC).
[10] abbreviates: dose: 400.0 mg/kg/injection, schedule: Q04DX002 (ip), vehicle: Klucel (hydroxypropylcellulose) (HPC).
The mark [11] stands for this setting: dose: 100.0 mg/kg/injection, schedule: Q04DX002 (ip), vehicle: saline.
The mark [12] stands for this setting: dose: 200.0 mg/kg/injection, schedule: Q04DX002 (ip), vehicle: saline.
Setting [13] is: dose: 400.0 mg/kg/injection, schedule: Q04DX002 (ip), vehicle: saline.
Where [14] appears, read: dose: 100.0 mg/kg/injection, schedule: Q04DX003 (ip), vehicle: saline with Tween-80.
The mark [15] stands for this setting: dose: 200.0 mg/kg/injection, schedule: Q04DX003 (ip), vehicle: saline with Tween-80.

Where “and” joins values, the source holds several entries; their conditions need not be identical. Equal entries are not always repeated. Toxic doses and inconclusive results are not listed.

For `COc1cc(N(CCCl)CCCl)c(OC)cc1/C=N/NC(=O)CC(N)C(=O)O` (stereo not given), the T/C by setting is: (dose: 12.37 mg/kg/injection, schedule: Q01DX009 (ip), vehicle: saline) 107 % of control; (dose: 12.5 mg/kg/injection, schedule: Q01DX009 (ip), vehicle: saline with Tween-80) 113 % of control; (dose: 18.75 mg/kg/injection, schedule: Q01DX009 (ip), vehicle: saline) 112 % of control; (dose: 25.0 mg/kg/injection, schedule: Q01DX009 (ip), vehicle: saline with Tween-80) 119 % of control; (dose: 28.12 mg/kg/injection, schedule: Q01DX009 (ip), vehicle: saline) 112 % of control; (dose: 37.5 mg/kg/injection, schedule: Q01DX009 (ip), vehicle: saline) 88 % of control. The T/C by setting is: (dose: 37.5 mg/kg/injection, schedule: Q04DX003 (ip), vehicle: acetone) 111 % of control; under setting [1], 119 % of control; under setting [2], 123 % of control; (dose: 75.0 mg/kg/injection, schedule: Q01DX009 (ip), vehicle: saline) 88 % of control; (dose: 75.0 mg/kg/injection, schedule: Q04DX003 (ip), vehicle: acetone) 105 % of control; (dose: 100.0 mg/kg/injection, schedule: Q01DX001 (ip), vehicle: carboxymethylcellulose (CMC)) 115 % of control. Also, the T/C runs as follows: (dose: 100.0 mg/kg/injection, schedule: Q01DX009 (ip), vehicle: other) 120 % of control; (dose: 150.0 mg/kg/injection, schedule: Q01DX001 (ip), vehicle: saline) 123 % of control; (dose: 150.0 mg/kg/injection, schedule: Q04DX003 (ip), vehicle: acetone) 113 % of control; (dose: 177.0 mg/kg/injection, schedule: Q01DX001 (ip), vehicle: carboxymethylcellulose (CMC)) 120 % of control; (dose: 266.0 mg/kg/injection, schedule: Q01DX001 (ip), vehicle: carboxymethylcellulose (CMC)) 124 % of control; (dose: 400.0 mg/kg/injection, schedule: Q01DX001 (ip), vehicle: carboxymethylcellulose (CMC)) 118 % of control. For the same molecule, the T/C (dose: 600.0 mg/kg/injection, schedule: Q01DX001 (ip), vehicle: carboxymethylcellulose (CMC)) is 153 % of control.
Consider `C=C(C)CC#N`, for which the T/C is 104 % of control (dose: 100.0 mg/kg/injection, schedule: Q04DX003 (ip), vehicle: saline) and 109 % of control (dose: 200.0 mg/kg/injection, schedule: Q04DX003 (ip), vehicle: saline).
On to `COc1ccc(OC)c(NC(=O)Nc2ccc(Cl)cc2[N+](=O)[O-])c1`, for which the T/C is, setting by setting: under setting [3], 91 % of control; under setting [4], 97 % of control; under setting [5], 89 % of control.
For `c1ccc2c(c1)ccc1c(C3CO3)cccc12` (stereo not given), the T/C is, setting by setting: under setting [6], 101 % of control; (dose: 200.0 mg/kg/injection, schedule: Q04DX002 (ip), vehicle: saline with Tween-80) 98 % of control; under setting [7], 88 % of control.
With `COC(=O)c1ccccc1NC(=O)N(c1ccccc1)c1ccccc1`, the T/C is, setting by setting: under setting [8], 93 % of control; under setting [9], 97 % of control; under setting [10], 101 % of control.
`CCOc1ccc(N=Cc2ccccc2OC(=O)c2ccccc2)cc1`: the T/C under setting [8] is 105 % of control, the T/C under setting [9] was 101 % of control and the T/C under setting [10] was 97 % of control.
`COc1cc2c(cc1OC)C1(NCC2)C(=O)Nc2c(C)cc(Cl)cc21` (stereo not given): the T/C was 103 % of control (dose: 25.0 mg/kg/injection, schedule: Q04DX002 (ip), vehicle: saline); 92 % of control (dose: 50.0 mg/kg/injection, schedule: Q04DX002 (ip), vehicle: saline); 95 % of control and 100 % of control under setting [11]; 92 % of control under setting [12]; 90 % of control under setting [13].
For `CCCCCCCCCCCCCCCCCCNC(=O)Nc1c(C)cc(C)cc1C`, the T/C reads like this: (dose: 100.0 mg/kg/injection, schedule: Q01DX009 (ip), vehicle: gum acacia) 94 % of control; (dose: 100.0 mg/kg/injection, schedule: Q04DX003 (ip), vehicle: gum acacia) 90 % of control; (dose: 200.0 mg/kg/injection, schedule: Q01DX009 (ip), vehicle: gum acacia) 87 % of control; (dose: 200.0 mg/kg/injection, schedule: Q04DX003 (ip), vehicle: gum acacia) 93 % of control; (dose: 400.0 mg/kg/injection, schedule: Q01DX009 (ip), vehicle: gum acacia) 94 % of control; (dose: 400.0 mg/kg/injection, schedule: Q04DX003 (ip), vehicle: gum acacia) 87 % of control.
Consider `COC(=O)c1cc(Cl)cc(NC(C)=O)c1Cl`, for which the T/C is 97 % of control under setting [8], 97 % of control under setting [9] and 97 % of control under setting [10].
Consider `CN1CN(c2ccccc2)C2(CCN(Cc3nc4ccc(Cl)cc4[nH]3)CC2)C1=O`, for which the T/C was 101 % of control (dose: 100.0 mg/kg/injection, schedule: Q01DX001 (ip), vehicle: Klucel (hydroxypropylcellulose) (HPC)); 93 % of control (dose: 200.0 mg/kg/injection, schedule: Q01DX001 (ip), vehicle: Klucel (hydroxypropylcellulose) (HPC)); 91 % of control (dose: 400.0 mg/kg/injection, schedule: Q01DX001 (ip), vehicle: Klucel (hydroxypropylcellulose) (HPC)).
As for `CCO/C(C)=N/N(C)c1n[n+]([O-])ccc1C`, the T/C runs as follows: under setting [11], 189 % of control; under setting [12], 96 % of control; under setting [13], 96 % of control.
For the molecule `COc1ccc(-c2cnc3c(N)nn(C)c3n2)cc1`, the T/C is 109 % of control under setting [3]; 92 % of control under setting [14]; 101 % of control under setting [4]; 100 % of control under setting [15]; 109 % of control under setting [5]; 94 % of control (dose: 400.0 mg/kg/injection, schedule: Q04DX003 (ip), vehicle: saline with Tween-80).
With `CCCCCCCCCCCCc1c2ccccc2cc2ccccc12`, the T/C runs as follows: (dose: 100.0 mg/kg/injection, schedule: Q01DX001 (ip), vehicle: saline) 97 % of control; (dose: 200.0 mg/kg/injection, schedule: Q01DX001 (ip), vehicle: saline) 98 % of control; (dose: 400.0 mg/kg/injection, schedule: Q01DX001 (ip), vehicle: saline) 92 % of control.
For `CC(=O)OC(C)C(C)C(=O)OCC12C3CC4(C)C(=CCC5C6(C)CCC(OC7OC(C(=O)O)C(OC8OC(CO)C(O)C(O)C8O)C(O)C7OC7OCC(O)C(O)C7O)C(C)(CO)C6CCC54C)C1CC(C)(C)C(O3)C2O` (stereo not given), the T/C (dose: 5.0 mg/kg/injection, schedule: Q01DX001 (sc), vehicle: steriod suspending solution) is 105 % of control and the T/C (dose: 50.0 mg/kg/injection, schedule: Q01DX001 (sc), vehicle: steriod suspending solution) was 112 % of control.
Regarding `CC1CCCCN1Cc1ccccc1COC(=O)c1cccc(Cl)c1` (stereo not given), the T/C (dose: 25.0 mg/kg/injection, schedule: Q04DX002 (ip), vehicle: other) was 98 % of control; the T/C (dose: 50.0 mg/kg/injection, schedule: Q04DX002 (ip), vehicle: other) was 113 % of control; the T/C (dose: 50.0 mg/kg/injection, schedule: Q04DX002 (ip), vehicle: saline with Tween-80) is 91 % of control; the T/C (dose: 100.0 mg/kg/injection, schedule: Q04DX002 (ip), vehicle: other) is 88 % of control; the T/C under setting [6] was 94 % of control and 86 % of control; the T/C under setting [7] is 101 % of control.
Turning to `CC(C)=CN1CCCCC1`, the T/C was 95 % of control under setting [1], 101 % of control under setting [3], 98 % of control under setting [14] and 96 % of control under setting [15].
With `Cc1noc2ncnc(N)c12`, the T/C was 102 % of control (dose: 25.0 mg/kg/injection, schedule: Q01DX009 (ip), vehicle: Klucel (hydroxypropylcellulose) (HPC)); 102 % of control (dose: 50.0 mg/kg/injection, schedule: Q01DX009 (ip), vehicle: Klucel (hydroxypropylcellulose) (HPC)); 95 % of control (dose: 100.0 mg/kg/injection, schedule: Q01DX009 (ip), vehicle: Klucel (hydroxypropylcellulose) (HPC)).
Regarding `CCOC(=O)C(=N\Nc1ccc(C)cc1C)/C(C)=N\NC(N)=S`, under setting [2], the T/C is 105 % of control.
On to `CC1(C)CC(N=Cc2ccccc2O)CC(C)(C)N1O.CC1(C)CC(N=Cc2ccccc2O)CC(C)(C)N1O.[Co]`, for which the T/C reads like this: under setting [14], 89 % of control; under setting [15], 92 % of control.
